In PubChem BioAssay (NCI):
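Test compounds were applied to cells in 96-well plates for 48 hours at 5 doses. TGI: concentration producing complete growth inhibition.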

Legend:
Assay in all cases: NCI tumour cell line growth inhibition, 48 h
786-0 renal = tested on: 786-0 renal
A498 renal = tested on: A498 renal
A549 NSCLC = tested on: A549 NSCLC
BT-549 breast = tested on: BT-549 breast
CAKI-1 renal = tested on: CAKI-1 renal
COLO 205 colon = tested on: COLO 205 colon
DU-145 prostate = tested on: DU-145 prostate
EKVX NSCLC = tested on: EKVX NSCLC
HCC-2998 colon = tested on: HCC-2998 colon
HCT-116 colon = tested on: HCT-116 colon
HL-60(TB) leukemia = tested on: HL-60(TB) leukemia
HOP-62 NSCLC = tested on: HOP-62 NSCLC
HOP-92 NSCLC = tested on: HOP-92 NSCLC
HS 578T breast = tested on: HS 578T breast
HT29 colon = tested on: HT29 colon
IGROV1 ovarian = tested on: IGROV1 ovarian
KM12 colon = tested on: KM12 colon
LOX IMVI melanoma = tested on: LOX IMVI melanoma
M14 melanoma = tested on: M14 melanoma
MALME-3M melanoma = tested on: MALME-3M melanoma
MCF7 breast = tested on: MCF7 breast
MDA-MB-231 breast = tested on: MDA-MB-231 breast
MDA-MB-435 = tested on: MDA-MB-435
MDA-N = tested on: MDA-N
MOLT-4 leukemia = tested on: MOLT-4 leukemia
NCI-H226 lung = tested on: NCI-H226 lung
NCI-H23 lung = tested on: NCI-H23 lung
NCI-H460 lung = tested on: NCI-H460 lung
NCI-H522 lung = tested on: NCI-H522 lung
NCI/ADR-RES ovarian = tested on: NCI/ADR-RES ovarian
OVCAR-3 ovarian = tested on: OVCAR-3 ovarian
OVCAR-5 ovarian = tested on: OVCAR-5 ovarian
OVCAR-8 ovarian = tested on: OVCAR-8 ovarian
PC-3 prostate = tested on: PC-3 prostate
RPMI-8226 leukemia = tested on: RPMI-8226 leukemia
RXF 393 renal = tested on: RXF 393 renal
SF-268 CNS = tested on: SF-268 CNS
SF-295 CNS = tested on: SF-295 CNS
SF-539 CNS = tested on: SF-539 CNS
SK-MEL-2 melanoma = tested on: SK-MEL-2 melanoma
SK-MEL-28 melanoma = tested on: SK-MEL-28 melanoma
SK-MEL-5 melanoma = tested on: SK-MEL-5 melanoma
SK-OV-3 ovarian = tested on: SK-OV-3 ovarian
SN12C renal = tested on: SN12C renal
SNB-19 CNS = tested on: SNB-19 CNS
SNB-75 CNS = tested on: SNB-75 CNS
SR leukemia = tested on: SR leukemia
SW-620 colon = tested on: SW-620 colon
T-47D breast = tested on: T-47D breast
TK-10 renal = tested on: TK-10 renal
U251 CNS = tested on: U251 CNS
UACC-257 melanoma = tested on: UACC-257 melanoma
UO-31 renal = tested on: UO-31 renal
ACHN renal = tested on: ACHN renal
CCRF-CEM leukemia = tested on: CCRF-CEM leukemia
HCT-15 colon = tested on: HCT-15 colon
K-562 leukemia = tested on: K-562 leukemia
OVCAR-4 ovarian = tested on: OVCAR-4 ovarian
UACC-62 melanoma = tested on: UACC-62 melanoma

## CN(C)CCNc1ccc2c(=O)n(CCN(C)C)c(=O)n3c4ccccc4c(=O)c1c23
786-0 renal
  TGI: 1.35 µM
A498 renal
  TGI: 0.554 µM
A549 NSCLC
  TGI: > 40.3 µM
BT-549 breast
  TGI: 5.7 µM
CAKI-1 renal
  TGI: 2.05 µM
COLO 205 colon
  TGI: 0.671 µM
DU-145 prostate
  TGI: 0.179 µM
EKVX NSCLC
  TGI: 2.56 µM
HCC-2998 colon
  TGI: 0.473 µM
HCT-116 colon
  TGI: 0.615 µM
HL-60(TB) leukemia
  TGI: 0.286 µM
HOP-62 NSCLC
  TGI: 0.265 µM
HOP-92 NSCLC
  TGI: 0.462 µM
HS 578T breast
  TGI: 3.65 µM
HT29 colon
  TGI: 1.68 µM
IGROV1 ovarian
  TGI: 0.982 µM
KM12 colon
  TGI: 1.14 µM
LOX IMVI melanoma
  TGI: 1.48 µM
M14 melanoma
  TGI: 1.81 µM
MALME-3M melanoma
  TGI: 1.93 µM
MCF7 breast
  TGI: 1.78 µM
MDA-MB-231 breast
  TGI: 0.682 µM
MDA-MB-435
  TGI: 0.537 µM
MDA-N
  TGI: 0.71 µM
MOLT-4 leukemia
  TGI: < 0.0201 µM
NCI-H226 lung
  TGI: 1.58 µM
NCI-H23 lung
  TGI: 0.565 µM
NCI-H460 lung
  TGI: 0.364 µM
NCI-H522 lung
  TGI: 0.58 µM
NCI/ADR-RES ovarian
  TGI: 5.5 µM
OVCAR-3 ovarian
  TGI: 2.81 µM
OVCAR-5 ovarian
  TGI: 5.03 µM
OVCAR-8 ovarian
  TGI: 8.78 µM
PC-3 prostate
  TGI: 7.09 µM
RPMI-8226 leukemia
  TGI: 0.0616 µM
RXF 393 renal
  TGI: 0.688 µM
SF-268 CNS
  TGI: 0.482 µM
SF-295 CNS
  TGI: 0.516 µM
SF-539 CNS
  TGI: 0.272 µM
SK-MEL-2 melanoma
  TGI: 1.7 µM
SK-MEL-28 melanoma
  TGI: 5.26 µM
SK-MEL-5 melanoma
  TGI: 0.163 µM
SK-OV-3 ovarian
  TGI: 6.2 µM
SN12C renal
  TGI: 0.294 µM
SNB-19 CNS
  TGI: 7.12 µM
SNB-75 CNS
  TGI: 0.403 µM
SR leukemia
  TGI: 0.0298 µM
SW-620 colon
  TGI: 3.98 µM
T-47D breast
  TGI: 3.89 µM
TK-10 renal
  TGI: 4.31 µM
U251 CNS
  TGI: 3.63 µM
UACC-257 melanoma
  TGI: 1.62 µM
UO-31 renal
  TGI: 1.8 µM

## Cc1cc(C)c2c(=O)n(CN3CCC(C#N)(c4ccccc4)CC3)sc2n1
786-0 renal
  TGI: 52.6 µM
A498 renal
  TGI: > 100 µM
A549 NSCLC
  TGI: > 100 µM
ACHN renal
  TGI: 44.1 µM
BT-549 breast
  TGI: > 100 µM
CAKI-1 renal
  TGI: > 100 µM
CCRF-CEM leukemia
  TGI: > 100 µM
COLO 205 colon
  TGI: > 100 µM
DU-145 prostate
  TGI: > 100 µM
EKVX NSCLC
  TGI: > 100 µM
HCT-116 colon
  TGI: > 100 µM
HCT-15 colon
  TGI: > 100 µM
HL-60(TB) leukemia
  TGI: 49.7 µM
HOP-62 NSCLC
  TGI: > 100 µM
HOP-92 NSCLC
  TGI: > 100 µM
HS 578T breast
  TGI: > 100 µM
HT29 colon
  TGI: > 100 µM
IGROV1 ovarian
  TGI: > 100 µM
K-562 leukemia
  TGI: > 100 µM
KM12 colon
  TGI: > 100 µM
LOX IMVI melanoma
  TGI: 69.9 µM
M14 melanoma
  TGI: > 100 µM
MALME-3M melanoma
  TGI: 46.5 µM
MCF7 breast
  TGI: > 100 µM
MDA-MB-231 breast
  TGI: > 100 µM
MDA-MB-435
  TGI: 65.5 µM
MDA-N
  TGI: 80.3 µM
MOLT-4 leukemia
  TGI: > 100 µM
NCI-H226 lung
  TGI: > 100 µM
NCI-H23 lung
  TGI: > 100 µM
NCI-H460 lung
  TGI: > 100 µM
NCI-H522 lung
  TGI: 31.3 µM
NCI/ADR-RES ovarian
  TGI: > 100 µM
OVCAR-3 ovarian
  TGI: > 100 µM
OVCAR-4 ovarian
  TGI: 88.8 µM
OVCAR-5 ovarian
  TGI: 90.9 µM
OVCAR-8 ovarian
  TGI: 81.5 µM
PC-3 prostate
  TGI: > 100 µM
RXF 393 renal
  TGI: 48 µM
SF-268 CNS
  TGI: > 100 µM
SF-295 CNS
  TGI: > 100 µM
SF-539 CNS
  TGI: 98.3 µM
SK-MEL-2 melanoma
  TGI: > 100 µM
SK-MEL-28 melanoma
  TGI: > 100 µM
SK-MEL-5 melanoma
  TGI: > 100 µM
SK-OV-3 ovarian
  TGI: > 100 µM
SN12C renal
  TGI: > 100 µM
SNB-19 CNS
  TGI: > 100 µM
SNB-75 CNS
  TGI: 76.1 µM
SR leukemia
  TGI: > 100 µM
SW-620 colon
  TGI: 67.7 µM
T-47D breast
  TGI: > 100 µM
TK-10 renal
  TGI: 63.6 µM
U251 CNS
  TGI: > 100 µM
UACC-257 melanoma
  TGI: 44.6 µM
UACC-62 melanoma
  TGI: > 100 µM
UO-31 renal
  TGI: 34.1 µM

## Nc1cc2c(nc3c4ccccc4c(N)cc3[n+]2-c2cccc3ccccc23)c2ccccc12 (tested in a mixture with another compound)
786-0 renal
  TGI: 4.22 µM
A498 renal
  TGI: 16.9 µM
A549 NSCLC
  TGI: 13.3 µM
ACHN renal
  TGI: 9.21 µM
BT-549 breast
  TGI: 16.3 µM
CAKI-1 renal
  TGI: 14.6 µM
CCRF-CEM leukemia
  TGI: 1.31 µM
COLO 205 colon
  TGI: 7.14 µM
DU-145 prostate
  TGI: 15.1 µM
EKVX NSCLC
  TGI: 18.6 µM
HCT-116 colon
  TGI: 10.7 µM
HCT-15 colon
  TGI: 25.9 µM
HL-60(TB) leukemia
  TGI: 4.53 µM
HOP-62 NSCLC
  TGI: 17.2 µM
HOP-92 NSCLC
  TGI: 8.45 µM
HS 578T breast
  TGI: 12 µM
HT29 colon
  TGI: 10.9 µM
IGROV1 ovarian
  TGI: 10.7 µM
K-562 leukemia
  TGI: 4.17 µM
KM12 colon
  TGI: 9.87 µM
LOX IMVI melanoma
  TGI: 7.3 µM
M14 melanoma
  TGI: 6.61 µM
MALME-3M melanoma
  TGI: 4.14 µM
MCF7 breast
  TGI: 3.79 µM
MDA-MB-231 breast
  TGI: 2.72 µM
MDA-MB-435
  TGI: 3 µM
MDA-N
  TGI: 5.27 µM
MOLT-4 leukemia
  TGI: 4.04 µM
NCI-H226 lung
  TGI: 28.7 µM
NCI-H23 lung
  TGI: 4.05 µM
NCI-H460 lung
  TGI: 1.58 µM
NCI-H522 lung
  TGI: 7.77 µM
NCI/ADR-RES ovarian
  TGI: 22.2 µM
OVCAR-3 ovarian
  TGI: 4.56 µM
OVCAR-4 ovarian
  TGI: 15.2 µM
OVCAR-5 ovarian
  TGI: 25.2 µM
OVCAR-8 ovarian
  TGI: 12.8 µM
PC-3 prostate
  TGI: 2.9 µM
RPMI-8226 leukemia
  TGI: 0.851 µM
RXF 393 renal
  TGI: 9.33 µM
SF-268 CNS
  TGI: 18.3 µM
SF-295 CNS
  TGI: 12.4 µM
SF-539 CNS
  TGI: 23.8 µM
SK-MEL-2 melanoma
  TGI: 4.28 µM
SK-MEL-28 melanoma
  TGI: 20 µM
SK-MEL-5 melanoma
  TGI: 6.17 µM
SK-OV-3 ovarian
  TGI: 17.9 µM
SN12C renal
  TGI: 13.8 µM
SNB-19 CNS
  TGI: 20.2 µM
SNB-75 CNS
  TGI: 10.6 µM
SR leukemia
  TGI: 3.56 µM
SW-620 colon
  TGI: 9.18 µM
T-47D breast
  TGI: 16.1 µM
TK-10 renal
  TGI: 4.55 µM
U251 CNS
  TGI: 2.61 µM
UACC-257 melanoma
  TGI: 3.51 µM
UACC-62 melanoma
  TGI: 21.7 µM
UO-31 renal
  TGI: 15.2 µM
